The results in this text go back to patent US8420810B2, “Bicyclic heterocyclic compound” (Ono Pharmaceutical, Co., Ltd., priority 2007, dated 2013).

Data set [1] concerns the target T1, human CRF receptor I (Homo sapiens, UniProt P34998).
T1 construct: expressed in transfected cells; host or cells: CHO-K1
T1 sequence (P34998 24-415): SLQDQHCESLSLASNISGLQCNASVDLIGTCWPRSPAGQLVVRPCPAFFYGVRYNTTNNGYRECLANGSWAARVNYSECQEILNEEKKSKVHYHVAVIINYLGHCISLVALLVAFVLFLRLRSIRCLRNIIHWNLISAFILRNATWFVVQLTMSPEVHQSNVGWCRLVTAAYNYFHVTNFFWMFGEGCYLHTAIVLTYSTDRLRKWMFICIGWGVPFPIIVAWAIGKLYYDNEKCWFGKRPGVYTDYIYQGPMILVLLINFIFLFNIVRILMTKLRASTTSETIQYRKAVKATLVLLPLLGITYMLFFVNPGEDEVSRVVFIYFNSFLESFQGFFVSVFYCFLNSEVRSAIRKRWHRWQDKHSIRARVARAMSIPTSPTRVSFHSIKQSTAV
Kind of data set: Binding assay (125I-CRF, membrane fraction). To be noted: 125I-CRF 0.25 nM, membrane fraction of CHO-K1 cells expressing human CRF receptor I, room temperature 2 hours. As for the experimental part: The forced-expression cell strain of the human CRF receptor I (parent strain is CHO-K1 cell) was cultured until the cell was confluent and collected with a scraper. The collected cells were washed twice with PBS, and were suspended with an ice-colded binding assay buffer (Tris-HCl (50 mM, pH 7.0), EDTA (2 mM, pH 8.0), and MgCl2 (10 mM)). After fractured with a dounce-type homogenizer, the suspended cells were centrifuged at 10,000 g, and a membrane fraction was collected. The collected membrane fraction was resuspended with a little amount of the binding assay buffer, thereafter diluted with the binding assay buffer so as to have a concentration of 1 mg/mL. The obtained membrane fraction was used for a binding assay.
^125I-CRF was diluted with the binding assay buffer so as to have a concentration of 0.5 nM, whereby 50 μL of the diluted ^125I-CRF was added to a siliconized 1.5 mL tube. Next, evaluation compounds diluted at appropriate times, DMSO (for general binding), or 100 μM of CRF (for non-specific binding), was added to a […]. Finally, 50 μL of the membrane fraction was added thereto and the reaction was started (final concentration of ^125I-CRF was 0.25 nM). The tube was incubated at room temperature for 2 hours. After the reaction, the tube was centrifuged at 20,000 g in order to collect the membrane fraction. The supernatant was discarded, and the pellet was washed with an ice-colded PBS/0.01% TritonX-100. A membrane binding count was measured using a y counter. The specific binding count was obtained by subtracting the non-specific count from the measured count.

The target of data set [2] is T1, human CRF receptor I. Kind of data set: Receptor antagonistic activity (cyclic AMP assay). The format is cell-based. To be noted: accumulated cyclic AMP, human/rat CRF stimulation, cells expressing human CRF receptor I, 37° C. 15 minutes. As for the experimental part:
The forced expression cell strain of the human CRF receptor I was cultured at 37° C. under 5% carbon dioxide and 95% air by using a Ham's F-12 medium (F-12 nutrient mixture) containing 10% bovine fetal serum and 1% antibiotic substance-antifungal agent. On the previous day before the cyclic AMP was measured, the cells were inoculated into a 96-well plate in an amount of 1×10^4 cell/well. On the measurement day, the cells were washed twice with a Ham's F-12 medium, whereby a solution of Ham's F-12 medium/1 mM 3-isobutyl-1-methylxanthine (assay medium) (178 μL) was added to each well. After the incubation at 37° C. for 15 minutes, the solutions (2 μL) of evaluation compound in various concentrations were added thereto, or DMSO (2 μL) was added to a CRF group and a blank group. An assay medium (20 μL) containing 10 nM human/rat CRF was added to wells of an evaluation compound group and the CRF group. An assay medium (20 μL) containing 0.00001% acetic acid was added to the blank group. Each group was further incubated at 37° C. for 15 minutes. The supernatant was removed and ice-colded to stop the reaction. Note that the reactions of 2 wells were the same in all reactions. The measurement for accumulated cyclic AMP amount in cells was carried out by using a cyclic AMP Biotrak enzyme immunoassay system (manufactured by GE Healthcare). The accumulated cyclic AMP amounts were calculated by subtracting mean values of corresponding 2 wells in the blank group from that of 2 wells. The IC50 values were calculated with non-linear regression analysis by defining logarithm concentration of the evaluation compound as independent variable and an accumulated cyclic AMP amount as dependent variable.

The subject of the next data set is SD rats. Kind of data set: Elevated plus maze test with swim-stressed rat. To be noted: orally 1 hour before the test. Format: in vivo. The protocol: 2 open arms with the same lengths (50×10 cm) and 2 close arms (a 30 cm wall was provided) with the same lengths (50×10 cm) were arranged in orthogonal manner at a height of 50 cm from the floor to provide an elevated crossroad maze system. In 70 cm above the both open arms, white light was provided, whereby illuminance was maintained at constant.
SD rats of 7 weeks of age (CHARLES RIVER LABORATORIES JAPAN) were forcedly made to swim for 120 seconds in a pool (40×30×38 cm) at 22° C. of water temperature and 25 cm of water depth. After 9 minutes of soaking stress loading, the rat was put on the center of the system. The activity for 5 minutes of the rat was analyzed with an automatic activity-tracking analysis system (EthoVision Version 3.0, Noldus Information Technology) to calculate the dwell time (second) on the open arm.
Note that no soaking stress was loaded on the control group. In addition, 20% Wellsolve (registered trademark) (5 mL/kg) was orally administered to the vehicle group and evaluation compounds in various concentrations were orally administrated to the evaluation compound administration group 1 hour before the test.

In the next data set the test system is rats. Kind of data set: Rat learned helplessness test. The format is in vivo. To be noted: oral, once a day for 6 days and 1 hour before the shock training. The protocol: The learned helplessness test was carried out using a two-way shuttle box which is partitioned into two by a gate which can be opened and closed so that travel to right and left becomes possible. On the 1st day of the learned helplessness test, rats were put into the device under un-escapable condition by closing the gate, and a total of 90 times of an electric shock (0.5 mA) was applied to them through a floor grid for 10 seconds at 2 seconds' intervals (shock training). Rats of the control group were left as they are for the same period of time (for 18 minutes) without applying the electric shock. After 24 hours of the shock training, rats were put into the device under escapable condition by opening the gate to carry out an escape test. After 5 minutes of acclimatization, a light stimulus and a sound stimulus (conditioning stimuli) were applied simultaneously for 5 seconds, and subsequent electric shock (un-conditioning stimulus) was applied for 10 seconds. This was regarded as one trial. A case of continuously receiving the electric shock without escape was regarded as escape failure. A total of 40 trials were carried out by setting the interval between respective trials to 5 seconds, and frequency of the escape failure was recorded.
In this connection, the vehicle (20% solvent) and evaluation compound were repeatedly administered once a day for 6 days and further orally administered 1 hour before the shock training.

Another data set is described as follows: Light stability test. The format is physicochemical. To be noted: 2500 Lux (D65 lamp), 25° C., HPLC. As for the experimental part: After weighing 5 mg of an evaluation compound, it was put into a test tube made of glass which was then sealed with a stop cock. Said test tube was stored at 25° C. for 11 days or 20 days under irradiation of 2500 Lux (a D65 lamp was used as the light source). The evaluation compound after 11 days or 20 days of irradiation was determined by an HPLC apparatus. Survival rate (%) of the evaluation compound was calculated by the following formula. Survival rate of evaluation compound (%)=amount of evaluation compound after 11 days or 20 days of irradiation (mg)/weighed value of evaluation compound (mg)×100 <HPLC Conditions> • Apparatus: A 1200 series (manufactured by Agilent Technologies, Inc.), • Column: YMC-Pack C4, A-802, 150×4.6 mm I.D., S-5 μm, 120 A (manufactured by YMC), • Mobile phase: A: water, B: acetonitrile, A/B: 35/65, • Column temperature: room temperature, • Flow rate: 1.0 mL/min.

Structures are written as SMILES.

As usually defined, the IC50 is the point on the concentration scale where inhibition reaches its midpoint.

Turning to `CCc1cc(OC)ccc1-c1nn2c(C)cc(C(CC)CC)c2c(=O)n1C` [8(25), 2-(2-ethyl-4-methoxyphenyl)-5-(1-ethylpropyl)-3,7-dimethylpyrrolo[2,1-f][1,2,4]triazin-4(3H)-one], the IC50 was 3.6 nM on human CRF receptor I [1] and 1.7 nM against human CRF receptor I [2]. Besides, the “mean dwell time on the open arm compared to that of the vehicle group” value with SD rats is listed as “favorably elongated”.

As to `CCC(CC)c1cc(C)n2nc(-c3c(C)nc(N(C)C)nc3C)n(C)c(=O)c12` [8(27), 2-[2-(dimethylamino)-4,6-dimethyl-5-pyrimidinyl]-5-(1-ethylpropyl)-3,7-dimethylpyrrolo[2,1-f][1,2,4]triazin-4(3H)-one], the figures for the IC50 at human CRF receptor I [1] and at human CRF receptor I [2] were 14.7 nM and 9.4 nM, respectively.

In the case of `CCC(CC)c1cc(C)n2nc(-c3ccc(OC)cc3C)n(CC(N)=O)c(=O)c12` [8(38), 2-[5-(1-ethylpropyl)-2-(4-methoxy-2-methylphenyl)-7-methyl-4-oxopyrrolo[2,1-f][1,2,4]triazin-3(4H)-yl]acetamide], the IC50 on human CRF receptor I [1] was found to be 23.5 nM; on human CRF receptor I [2], 34.8 nM.

As to `CCC(CC)c1cc(C)n2nc(-c3ccc(OC)cc3C)n(CCO)c(=O)c12` [8(44), 5-(1-ethylpropyl)-3-(2-hydroxyethyl)-2-(4-methoxy-2-methylphenyl)-7-methylpyrrolo[2,1-f][1,2,4]triazin-4(3H)-one], the 50% inhibitory concentration (IC50) at human CRF receptor I [1] is 7.8 nM; at human CRF receptor I [2], 4.2 nM.

As to `CCC(CC)c1cc(C)n2nc(-c3sc(N(C)C)nc3Cl)n(C)c(=O)c12` [8(48), 2-[4-chloro-2-(dimethylamino)-1,3-thiazol-5-yl]-5-(1-ethylpropyl)-3,7-dimethylpyrrolo[2,1-f][1,2,4]triazin-4(3H)-one], the 50% inhibitory concentration (IC50) on human CRF receptor I [1] was 7.2 nM; at human CRF receptor I [2] it was 1.2 nM.

For the compound `CCCC(C)c1cc(C)n2nc(-c3cnc(OC(F)F)cc3C)n(C)c(=O)c12` (stereo not drawn) [28(10), 2-[6-(difluoromethoxy)-4-methyl-3-pyridinyl]-3,7-dimethyl-5-(1-methylbutyl)pyrrolo[2,1-f][1,2,4]triazin-4(3H)-one], the IC50 on human CRF receptor I [1] was found to be 20.7 nM; against human CRF receptor I [2] it was 17.1 nM. In the data set with SD rats, the “mean dwell time on the open arm compared to that of the vehicle group” value is on record as “favorably elongated”.

Consider `CCC(CC)c1cc(C)n2nc(-c3ccc(OC(F)(F)F)cc3Cl)n(C)c(=O)c12` [Example 8, 2-[2-chloro-4-(trifluoromethoxy)phenyl]-5-(1-ethylpropyl)-3,7-dimethylpyrrolo[2,1-f][1,2,4]triazin-4(3H)-one], for which the figures for the IC50 at human CRF receptor I [1] and at human CRF receptor I [2] were 6.1 nM and 1.8 nM, respectively. Moreover, the “increase of the frequency of escape failure for the vehicle group” value (from here on “increase”) with rats (10 mg/kg) is on record as “significantly inhibited”. Also, the “residual ratio after 20 days” value in “Light stability test” is on record as 99%. Further, the “mean dwell time on the open arm compared to that of the vehicle group” value in the data set with SD rats (10 mg/kg) is “favorably elongated”.

For the compound `CCC(CC)c1cc(C)n2nc(-c3cnc(OC(F)F)cc3C)n(C)c(=O)c12` [Example 13, 2-[6-(difluoromethoxy)-4-methyl-3pyridinyl]-5-(1-ethylpropyl)-3,7-dimethylpyrrolo[2,1-f][1,2,4]triazin-4(3H)-one], the IC50 turned out to be 5.3 nM on human CRF receptor I [1] and 3.2 nM at human CRF receptor I [2]. The “increase” value in the data set with rats (3 mg/kg) is recorded as “significantly inhibited”.

Take `CCCC(C)c1cc(C)n2nc(-c3ccc(SC)cc3Cl)n(C)c(=O)c12` (stereo not drawn) [Example 22, 2-[2-chloro-4-(methylthio)phenyl]-3,7-dimethyl-5-(1-methylbutyl)pyrrolo[2,1-f][1,2,4]triazin-4(3H)-one]: the IC50 at human CRF receptor I [1] came to 2.1 nM; at human CRF receptor I [2], 1.9 nM. Also, in the data set on rats (3 mg/kg), the “increase” value is given as “significantly inhibited”.

`CCn1c(-c2ccc(SC)cc2C)nn2c(C)cc(C(C)C)c2c1=O` [Example 23, 3-ethyl-5-isopropyl-7-methyl-2-[2-methyl-4-(methylthio)phenyl]pyrrolo[2,1-f][1,2,4]triazin-4(3H)-one]: the half-maximal inhibitory concentration (IC50) came out at 11 nM on human CRF receptor I [1] and 9.6 nM at human CRF receptor I [2]. Further, the “mean dwell time on the open arm compared to that of the vehicle group” value with SD rats (10 mg/kg) is “favorably elongated”.

Turning to `CCC(CC)c1cc(C)n2nc(-c3ncc(OC)cc3Cl)n(C)c(=O)c12` [Example 24(21), 2-(3-chloro-5-methoxy-2-pyridinyl)-5-(1-ethylpropyl)-3,7-dimethylpyrrolo[2,1-f][1,2,4]triazin-4(3H)-one], the half-inhibitory concentration (IC50) at human CRF receptor I [1] was 5.2 nM; on human CRF receptor I [2] it was 5.8 nM. In addition, the “increase” value in the data set on rats (10 mg/kg) is given as “significantly inhibited”.

As for `CCN(CC)c1cc(C)n2nc(-c3ccc(OC)cc3Cl)n(C)c(=O)c12` [Example 65, 2-(2-chloro-4-methoxyphenyl)-5-(diethylamino)-3,7-dimethylpyrrolo[2,1-f][1,2,4]triazin-4(3H)-one], the IC50 turned out to be 4.9 nM at human CRF receptor I [1] and 3.5 nM on human CRF receptor I [2].
